Here are results for ten compounds from patent publication US4246342A, “Process for the manufacture of pyruvate oxidase, and analytical method and kit for the use of the same” (Toyo Jozo Kabushiki Kaisha, priority 1978, dated 1981).

Assay [1] has as its system pyruvate oxidase (B-0668). Put plainly: Effect of several substances added on the enzyme activity. It counts as biochemical, Streptococcus sp. B-0668. As to conditions: 5 mM of the substance added instead of MgCl2 in the assay system; enzyme from B-0668; MgCl2 = 100. Here is the method:
(§1) (a) Effect of several substances on the enzyme activity is examined by adding 5 mM of the substance indicated below instead of MgCl2 in the assay system.
(§2) The assay method of pyruvate oxidase of the present invention uses a reaction mixture as follows: […]
(§3) The above reaction mixture (1.0 ml) is pre-incubated at 37° C. for 3 minutes. To this solution is added the enzyme solution (20 μl) and incubated at 37° C. for 10 minutes. 0.1 M citrate buffer (pH 6.0, 2 ml) containing 0.1 M EDTA is added to stop the reaction. The violet color formed is measured by colorimetric method at 565 nm.
(§4) A unit (1 unit, 1 U) of enzyme activity is defined as the activity which generates 1 μmole of hydrogen peroxide per minute.

Assay [2] has as its target T1, pyruvate oxidase (IFO-12219) (Aerococcus viridans, UniProt A0ABP2I6X2).
T1 sequence (A0ABP2I6X2 1-592): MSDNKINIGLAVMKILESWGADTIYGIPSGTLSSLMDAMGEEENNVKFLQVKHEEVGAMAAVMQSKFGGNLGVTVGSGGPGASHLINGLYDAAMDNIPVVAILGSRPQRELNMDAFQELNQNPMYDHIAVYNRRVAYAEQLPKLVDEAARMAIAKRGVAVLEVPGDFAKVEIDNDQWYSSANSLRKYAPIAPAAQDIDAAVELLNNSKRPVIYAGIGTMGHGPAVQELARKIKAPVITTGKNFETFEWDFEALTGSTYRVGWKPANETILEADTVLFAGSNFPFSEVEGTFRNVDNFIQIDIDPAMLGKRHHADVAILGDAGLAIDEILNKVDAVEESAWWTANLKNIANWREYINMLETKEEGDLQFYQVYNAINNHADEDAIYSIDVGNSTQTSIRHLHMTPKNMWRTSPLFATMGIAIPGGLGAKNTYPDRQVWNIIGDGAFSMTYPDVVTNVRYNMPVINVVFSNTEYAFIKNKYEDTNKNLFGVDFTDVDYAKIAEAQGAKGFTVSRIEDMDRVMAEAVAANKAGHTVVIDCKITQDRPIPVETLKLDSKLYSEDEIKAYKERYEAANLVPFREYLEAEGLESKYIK
Described as above. Format: biochemical, Aerococcus viridans IFO-12219. The conditions noted are these: 5 mM of the substance added instead of MgCl2 in the assay system; enzyme from IFO-12219; MgCl2 = 100. On the procedure:
as §1, §2, §3, §4

Assay [3] has as its target T2, pyruvate oxidase (IFO-12317) (Aerococcus viridans, UniProt A0ABP2I6X2).
T2 sequence (A0ABP2I6X2 1-592): T1 sequence (A0ABP2I6X2 1-592)
Described as above. As to conditions: 5 mM of the substance added instead of MgCl2 in the assay system; enzyme from IFO-12317; MgCl2 = 100. It counts as biochemical, Aerococcus viridans IFO-12317. Here is the method: as §1, §2, §3, §4

Assay [4] relates to pyruvate oxidase (B-0667). The description is as above. It counts as biochemical, Pediococcus sp. B-0667. The conditions noted are these: 5 mM of the substance added instead of MgCl2 in the assay system; enzyme from B-0667; MgCl2 = 100. Here is the method: as §1, §2, §3, §4
The test system of assay [5] is pyruvate oxidase. Briefly: Effect of substances on the enzyme, summary statements for the four strains. The conditions noted are these: summary in words; for Effect on the enzyme (inhibited / activated): 5 mM substance; for Requirement of the enzyme for the substance (cofactor / substrate): elimination from the assay system. It counts as biochemical. Here is the method:
as §1
0.1 M dimethylglutarate-NaOH buffer is used in the case of phosphate elimination.
The assay method of pyruvate oxidase of the present invention uses a reaction mixture as follows:
as §3

The test system of assay [6] is pyruvate oxidase (B-0668). Briefly: Effect of elimination of a substance from the assay system on the enzyme activity. Format: biochemical, Streptococcus sp. B-0668. As to conditions: enzyme from B-0668, no elimination = 100, 0.1 M dimethylglutarate-NaOH buffer for phosphate elimination. On the procedure: (§5) (b) Effect of elimination of the following substance from the assay system on the enzyme activity is shown below. 0.1 M dimethylglutarate-NaOH buffer is used in the case of phosphate elimination.
as §2, §3, §4

Assay [7] relates to pyruvate oxidase (B-0667). The assay is described as above. As to conditions: enzyme from B-0667, no elimination = 100, 0.1 M dimethylglutarate-NaOH buffer for phosphate elimination. It counts as biochemical, Pediococcus sp. B-0667. On the procedure:
as §5, §2, §3, §4

For assay [8], the target named is T1, pyruvate oxidase (IFO-12219). The assay is described as above. It counts as biochemical, Aerococcus viridans IFO-12219. As to conditions: enzyme from IFO-12219, no elimination = 100, 0.1 M dimethylglutarate-NaOH buffer for phosphate elimination. On the procedure:
as §5, §2, §3, §4

The target in assay [9] is T2, pyruvate oxidase (IFO-12317). Described as above. The conditions noted are these: enzyme from IFO-12317, no elimination = 100, 0.1 M dimethylglutarate-NaOH buffer for phosphate elimination. It counts as biochemical, Aerococcus viridans IFO-12317. Here is the method:
as §5, §2, §3, §4

For `[Ba+2].[Cl-].[Cl-]` [BaCl2], the “Relative activity (%)” value worked out at 58.8% in assay [1], 23.9% in assay [2], 28.8% in assay [3] and 20.6% in assay [4].
Turning to `[Ca+2].[Cl-].[Cl-]` [CaCl2], the “Relative activity (%)” value amounted to 75.0% in assay [1], 83.4% in assay [2], 78.7% in [3] and 69.4% in assay [4]. Besides, the “Effect on the enzyme (inhibited / activated)” value in assay [5] is listed as “activated”.
`[Cl-].[Cl-].[Co+2]` [CoCl2]: the “Relative activity (%)” value in assay [1] came to 81.1%; in assay [2], 85.0%; in [3], 84.0%; in assay [4] it was 81.3%. The “Effect on the enzyme (inhibited / activated)” value in assay [5] is on record as “activated”.
On to `O=C(O)CN(CCN(CC(=O)O)CC(=O)O)CC(=O)O` [EDTA, ethylene-diaminetetraacetic acid], for which the “Relative activity (%)” value in [1], in [2] and in [4] was 0% in each case. For the same compound, the “Effect on the enzyme (inhibited / activated)” value in [5] is “inhibited”.
For `Cc1cc2nc3c(=O)[nH]c(=O)nc-3n(C[C@H](O)[C@H](O)[C@H](O)COP(=O)(O)OP(=O)(O)OC[C@H]3O[C@@H](n4cnc5c(N)ncnc54)[C@H](O)[C@@H]3O)c2cc1C` [FAD, flavin adenine dinucleotide], the “Relative activity (%), substance eliminated” value in assay [6] was 100%; in assay [7] it was 33.9%; in assay [8], 32.7%. Moreover, the “Requirement of the enzyme for the substance (cofactor / substrate)” value (shortened to “Requirement … (cofactor / substrate)”) in [5] is on record as “requires”.
As to `[Cl-].[Cl-].[Mg+2]` [MgCl2], the “Relative activity (%)” value in [1], in [2], in assay [3] and in assay [4] was 100% throughout. In addition, in assay [5], the “Effect on the enzyme (inhibited / activated)” value is listed as “activated”.
Consider `[Cl][Mn][Cl]` [MnCl2], for which the “Relative activity (%)” value in assay [1] is on record as 102.7%; in assay [2], 116.2%; in assay [3], 111.0%; in assay [4], 129.1%. The “Effect on the enzyme (inhibited / activated)” value in assay [5] is listed as “activated”.
Turning to `Cc1ncc(C[n+]2csc(CCO[P@](=O)(O)OP(=O)(O)O)c2C)c(N)n1` [Thiaminepyrophosphate, thiamine pyrophosphate], the “Relative activity (%), substance eliminated” value in [6], in [7] and in [8] was 0% throughout. In addition, the “Requirement … (cofactor / substrate)” value in [5] was “requires”.
Consider `[Cl-].[Cl-].[Zn+2]` [ZnCl2], for which the “Relative activity (%)” value in assay [1] is given as 38.2%; in assay [2] it was 14.9%; in [3], 22.8%; in [4], 16.0%.
Turning to phosphate, the “Relative activity (%), substance eliminated” value in assay [6], in assay [7], in assay [8] and in [9] was 0% in each case. Further, the “Requirement … (cofactor / substrate)” value in assay [5] is reported as “requires”.
